Laboratory results reported in patent publication US20210386367A1, “DEVICES AND SYSTEMS FOR GASTROINTESTINAL MICROBIOME DETECTION AND MANIPULATION” (Progenity, Inc., priority 2018, published 2021).
≈ marks a conversion by molar mass, not a printed value.

Legend:
[1] = system: Streptococcus spp. spontaneous mutants; assay: organism not typed; type: cell-based
Protocol: Select isolates were subcultured onto agar containing drug at the selection concentration, were identified by MALDI, and were frozen for broth microdilution MIC testing as described below.
To determine whether colonies growing on drug selection plates had elevated MIC values to the selecting antibiotic, susceptibility testing by broth microdilution was conducted on isolated mutants following methodology recommended by CLSI (1), (2), and (3) “Performance Standards for Antimicrobial Susceptibility Testing; Twenty-Eighth Informational Supplement.,” CLSI document M100-S28, 2018.
All wells in columns 2 through 12 of a standard 96-well microdilution plate (Costar 3795) were filled with 150 μL of the appropriate diluent. Then, 300 μL of the test agents were added to the wells of column 1 of the plates at […] the highest final concentration to be tested. Serial two-fold dilutions were made across the rows through column 11 using the Biomek 2000. The wells of column 12 contained no drug and served as the growth control wells. This plate served as the “mother plate” from which selected MIC assay plates or “daughter plates” were made.
2 μL of drug solution from each well of a mother plate was added to each corresponding well of the daughter plate in a single step. A standardized inoculum of each aerobic test organism was prepared per CLSI methods to equal a 0.5 McFarland standard, followed by a dilution of 1:20 in MHB II. The plates were then inoculated with 10 μL of the diluted inoculum using the Biomek 2000 from low to high drug concentration, resulting in a final concentration of approximately 5×10^5 CFU/mL. An un-inoculated plate was incubated for the purpose of assessing solubility of the drug in the test media.
The plates for the aerobic tests were stacked 3-4 high, covered with a sterile lid on the top plate, and incubated aerobically at 35° C. for 18-20 hr. The MIC was recorded as the lowest concentration of drug that inhibited visible growth of the organism.

[2] = system: Streptococcus spp. spontaneous mutants; conditions: S. pneumoniae ATCC 49619; CLSI QC range shown in parentheses; cited from earlier work

SMILES: CC[C@H]1OC(=O)[C@H](C)[C@@H](O[C@H]2C[C@@](C)(OC)[C@@H](O)[C@H](C)O2)[C@H](C)[C@@H](O[C@@H]2O[C@H](C)C[C@H](N(C)C)[C@H]2O)[C@](C)(O)C[C@@H](C)CN(C)[C@H](C)[C@@H](O)[C@]1(C)O [AZI]
- MIC ([1]; S. agaloctiae ATCC 13813, selected on rifaximin 4X MIC, Colony A): 0.015 µg/mL (≈ 0.02 µM)
- MIC ([1]; S. agaloctiae ATCC 13813, selected on rifaximin 4X MIC, Colony B): 0.015 µg/mL (≈ 0.02 µM)
- MIC ([1]; S. agaloctiae ATCC 13813, selected on rifaximin 8X MIC, Colony A): 0.015 µg/mL (≈ 0.02 µM)
- MIC ([1]; S. agaloctiae ATCC 13813, selected on rifaximin 8X MIC, Colony B): 0.015 µg/mL (≈ 0.02 µM)
- MIC ([1]; S. agaloctiae ATCC 13813 Parent): 0.015 µg/mL (≈ 0.02 µM)
- MIC ([1]; S. pneumoniae ATCC 49619, selected on rifaximin 4X MIC, Colony A): 0.03 µg/mL (≈ 0.0401 µM)
- MIC ([1]; S. pneumoniae ATCC 49619, selected on rifaximin 4X MIC, Colony B): 0.03 µg/mL (≈ 0.0401 µM)
- MIC ([1]; S. pneumoniae ATCC 49619, selected on rifaximin 8X MIC, Colony A): 0.03 µg/mL (≈ 0.0401 µM)
- MIC ([1]; S. pneumoniae ATCC 49619, selected on rifaximin 8X MIC, Colony B): 0.03 µg/mL (≈ 0.0401 µM)
- MIC ([1]; S. pneumoniae ATCC 49619 Parent): 0.06 µg/mL (≈ 0.0801 µM)
- MIC ([1]; S. pyogenes ATCC 49399, selected on rifaximin 4X MIC, Colony A): 0.06 µg/mL (≈ 0.0801 µM)
- MIC ([1]; S. pyogenes ATCC 49399, selected on rifaximin 4X MIC, Colony B): 0.06 µg/mL (≈ 0.0801 µM)
- MIC ([1]; S. pyogenes ATCC 49399, selected on rifaximin 8X MIC, Colony A): 0.06 µg/mL (≈ 0.0801 µM)
- MIC ([1]; S. pyogenes ATCC 49399, selected on rifaximin 8X MIC, Colony B): 0.06 µg/mL (≈ 0.0801 µM)
- MIC ([1]; S. pyogenes ATCC 49399 Parent): 0.03 µg/mL (≈ 0.0401 µM)
- MIC, CLSI QC range [2]: (0.06-0.25) μg/mL
